Measured values from patent US9096528B2, “2-aminonicotinic acid ester derivative and bactericide containing same as active ingredient” (AGRO-KANESHO CO., LTD., priority 2012, dated 2015).

System: Botrytis cinerea
Assay: Test on Botrytis cinerea (gray mold) of a cucumber
Type: in vivo
Details: 25 ppm; cut cucumber cotyledons inoculated with spore suspension; 20° C. for 72 hours; from lesion diameter vs non-treatment region
Protocol: A cucumber plant (a plant variety: “Sagami Han-shiro”) of 12 days after seeding was prepared for the test. Parts of cotyledons of the cucumber plant were cut out with leaving about 2 cm of its rachis. Apart from this, a plastic case with a size of 32 cm×24 cm×4.5 cm (length×width×height), at the bottom of which a paper towel sufficiently moistened with water was laid, and on the paper towel a mesh with legs was placed, was prepared. On the mesh, the above-described cut-out parts of cotyledons were placed such that leaves were horizontal. To the central part of each of the cotyledons, 50 μl of a spore suspension (1×10^6 spores/ml) of Botrytis cinerea of a cucumber was added dropwise. Thereafter, each of cotyledons was covered with a paper disc with a diameter of 6 mm. Apart from this, an emulsion prepared according to the above Preparation Example 1 was diluted with an aqueous solution of 0.02% Tween 20 in demineralized water to prepare a diluent of a predetermined concentration. 50 μl of the diluent was dropped on each paper disc. The plastic case was lidded and was placed under the condition of 20° C. for 72 hours, and then the diameter of each lesion was measured and the controlling rate for Botrytis cinerea (gray mold) of a cucumber was calculated according to the following equation. […]

For `CCOc1cccc(Oc2ccc(CNC(=O)c3cccnc3N)cc2)c1` [A], the “Controlling rate (%)” value was 54%.
